Source: patent publication US20070197509A1, “Compositions and methods for modulating gated ion channels” (PainCeptor Pharma Corporation, priority 2005, published 2007)

What was measured:
[1] = molecular target: T1, hASIC1a (Homo sapiens, UniProt P78348); experiment: FlexStation/FLIPR calcium-imaging assay, acid (MES)-induced response in ASIC1a expressing cells; format: cell-based; set-up: expressed in transfected cells
T1 sequence (P78348 1-528): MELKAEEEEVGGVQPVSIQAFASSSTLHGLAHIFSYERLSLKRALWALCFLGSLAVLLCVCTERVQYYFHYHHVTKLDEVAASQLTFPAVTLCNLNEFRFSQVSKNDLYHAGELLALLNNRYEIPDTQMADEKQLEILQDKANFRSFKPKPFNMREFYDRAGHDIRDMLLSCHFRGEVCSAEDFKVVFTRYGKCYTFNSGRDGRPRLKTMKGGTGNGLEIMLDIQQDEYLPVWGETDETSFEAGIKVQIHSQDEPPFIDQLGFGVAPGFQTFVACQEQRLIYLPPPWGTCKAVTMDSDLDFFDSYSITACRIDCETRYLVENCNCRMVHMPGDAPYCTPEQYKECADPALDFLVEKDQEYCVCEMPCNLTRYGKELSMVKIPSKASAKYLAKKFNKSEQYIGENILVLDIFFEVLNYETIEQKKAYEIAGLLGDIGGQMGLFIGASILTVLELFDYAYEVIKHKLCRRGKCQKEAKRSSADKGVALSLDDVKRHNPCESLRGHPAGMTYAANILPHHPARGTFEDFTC
Description: Identification of ASIC Antagonists Using Calcium-Imaging
ASIC1a expressing HEK293 or CHO cells are grown in culture medium (DMEM with 10% FBS), in polystyrene culture flasks ([…]) at 37° C. in a humidified atmosphere of 5% CO2. Confluency of cells should be 80-90% on day of plating. Cells are rinsed with 10 ml of PBS and re-suspended by addition of culture medium and trituration with a 25 ml pipette.
The cells are seeded at a density of approximately 1×10^5 cells/ml for HEK293 and 8×10^4 for CHO cells (100 μl/well) in black-walled, clear bottom, poly-D-lysin pre-treated 96-well plates. Plated cells were allowed to proliferate for 48 h before loading with dye.
Fluo-4/AM (1 mg, Molecular Probes) is dissolved in 912 μl DMSO. The Fluo-4/AM stock solution (1 mM) is diluted with culture medium to a final concentration of 2 μM (loading solution).
The culture medium is aspirated from the wells, and 80 μl of the Fluo-4/AM loading solution is added to each well. The cells are incubated at 37° C. for 30 min. When CHO cells are used, probenicid at 2.5 mM (final concentration) is added in the loading solution.
After the loading period (15-20 min., the loading solution is aspirated and the cells are washed twice with 100 μl modified Assay Buffer (145 mM NaCl, 5 mM KCl, 5 mM CaCl2, 1 mM MgCl2, 10 mM HEPES, pH 7.4) to remove extracellular dye. Following the second wash, 100 μl modified Assay Buffer is added to each well and the fluorescence is measured in FLIPR™ or FlexStation™ (Molecular Devices, USA), or any other suitable equipment known to the skilled in the art. When CHO cells are used, probenicid at 2.5 mM (final concentration) is added in the wash buffer.
First addition: 50 μl test solution at a rate of 26 μl/sec and a starting height of 125 μl
Second addition: 50 μl MES solution (20 mM, 5 mM final concentration) at a rate of 26 μl/sec and a starting height of 115 μl.
Reading intervals: pre-incubation—120 sec. antagonist phase, addition of MES at 145 sec. and reading time with agonist 100 sec (total run time of 240 sec).
Fluorescence obtained after stimulation is corrected for the mean basal fluorescence (in modified Assay Buffer).
(§1) The MES-induced peak calcium response (or change in membrane potential), in the presence of test substance, is expressed relative to the MES response alone. Test substances that block the MES-induced calcium response (or change in membrane potential) are re-tested in triplicates. Confirmed hits are picked for further characterization by performing full dose-response curves to determine potency of each hit compound as represented by the IC50 values (i.e., the concentration of the test substance which inhibits 50% of the MES-induced calcium and/or membrane potentiation response; see, for example, FIG. 1).

[2] = molecular target: T2, hASIC3 (Homo sapiens, UniProt Q9UHC3); experiment: FlexStation assay on HEK293 cells expressing hASIC3; format: cell-based; set-up: expressed in transfected cells; host or cells: HEK293 cells; settings: for IC50: FlexStation (Flex), Tables A-F, read-out: Biological Data (IC50 uM) h3 (Flex)
T2 sequence (Q9UHC3 1-531): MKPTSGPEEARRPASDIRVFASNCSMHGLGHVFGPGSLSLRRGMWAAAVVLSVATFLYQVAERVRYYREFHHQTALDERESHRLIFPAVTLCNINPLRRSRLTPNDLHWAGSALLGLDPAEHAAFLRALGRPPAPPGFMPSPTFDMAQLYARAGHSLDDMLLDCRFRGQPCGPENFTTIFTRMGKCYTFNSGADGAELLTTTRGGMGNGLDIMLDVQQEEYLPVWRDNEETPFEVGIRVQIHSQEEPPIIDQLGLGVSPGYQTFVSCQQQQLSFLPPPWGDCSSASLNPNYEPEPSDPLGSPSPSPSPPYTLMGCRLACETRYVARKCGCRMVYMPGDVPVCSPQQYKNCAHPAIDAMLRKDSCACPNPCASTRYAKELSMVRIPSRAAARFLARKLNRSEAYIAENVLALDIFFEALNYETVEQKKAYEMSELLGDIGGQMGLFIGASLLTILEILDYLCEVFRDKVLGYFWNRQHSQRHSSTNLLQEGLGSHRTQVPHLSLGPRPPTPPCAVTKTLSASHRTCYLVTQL
Description: A vial of FMP dye (Molecular Devices) is resuspended in 10.5 ml of assay buffer (48.3 mM NaCl, 93 mM NMDG, 5 mM KCl, 5 mM CaCl2, 1 mM MgCl2, 10 mM HEPES, pH 7.4). The culture medium is aspirated from the wells, and 100 μl of the FMP loading solution is added to each well. The cells are incubated at 37° C. for 30 min.
After the loading period, the loading solution is left on the cells and the membrane potential-induced fluorescence is measured in FLIPR™ or FlexStation™ (Molecular Devices, USA), or any other suitable equipment known to the skilled in the art.
For cells co-expressing ASIC1a and ASIC3 channels (e.g. HEK293 cells), membrane potential dye (FMP dye) is used and the FlexStation settings are as above.
as §1
(§2) The data shown in Table H was acquired using the FlexStation assay described in Example 1 on HEK293 cells expressing hASIC3 (h3) and/or hASIC1a (h1a).

[3] = test system: T3, hASIC3 (h3) and/or hASIC1a (h1a); experiment: FlexStation/FLIPR assay, channel not marked in the cell; format: cell-based, human; settings: Table H, cells without channel mark; HEK293; read-out: EC50 (μM) Flex/FLIPR
T3 construct: EC50 (μM) in one experiment; HEK293
Source text: as §1, §2

[4] = molecular target: T1, hASIC1a; experiment: Two-electrode voltage clamp in Xenopus laevis oocytes expressing hASIC1a (OpusExpress); format: cell-based; set-up: expressed in transfected cells; host or cells: Xenopus laevis oocytes, nuclear microinjection of cDNA (e.g. in pCDNA3)
Description: Two-electrode voltage clamp electrophysiological assays in Xenopus laevis oocytes expressing gated ion channels are performed as follows:
Oocytes are surgically removed from adult Xenopus laevis and treated for 2 h at room temperature with 1 mg/ml type I collagenase (Sigma) in Barth's solution under mild agitation. Selected oocytes at stage IV-V are defolliculated manually before nuclear microinjection of 2.5-5 ng of a suitable expression vector, such as pCDNA3, comprising the nucleotide sequence encoding a gated ion channel subunit protein. In such an experiment, the oocytes express homomultimeric proton-gated ion channels on their surface. In an alternate experiment, one, two, three or more vectors comprising the coding sequences for distinct gated ion channel subunits are co-injected in the oocyte nuclei. In the latter case, oocytes express heteromultimeric proton-gated ion channels. […] Once impaled with the microelectrodes, oocytes are continuously superfused at 10-12 ml/min with a modified Ringer's solution containing 97 mM NaCl, 2 mM KCl, 1.8 mM CaCl2, and 10 mM HEPES brought to pH 7.4 with NaOH (Control Ringer). Test Ringer solution is prepared by replacing HEPES with MES and adjusting the pH to the desired acidic value. Compounds of the present invention are prepared in both the Control and Test Ringer solutions and applied to oocytes at room temperature through a computer-controlled switching valve system. […] Similarly, recordings can also be acquired in an automated multichannel oocytes system as the OpusExpress™ (Molecular Devices, Sunnyvale, Calif., USA).
Recordings were acquired from oocytes expressing homomeric hASIC1a using a two-electrode voltage-clamp configuration procedure as described herein.

[5] = molecular target: T1, hASIC1a; experiment: Whole-cell patch clamp of acid-induced currents in cells transfected with hASIC1a; format: cell-based; set-up: expressed in transfected cells; settings: Table H
Description: Another example of an in vitro assessment method consists of using mammalian heterologous expression systems, which are known to those skilled in the art, and include a variety of mammalian cell lines such as COS, HEK, e.g., HEK293 and/or CHO, cells. Cell lines are transfected with gated ion channel(s) and used to perform electrophysiology as follows:
All experiments are performed at room temperature (20-25° C.) in voltage clamp using conventional whole cell patch clamp methods (Neher, E., et al. (1978) Pfluegers Arch 375:219-228).
The amplifier used is the EPC-9 (HEKA-electronics, Lambrect, Germany) run by a Macintosh G3 computer via an ITC-16 interface. Experimental conditions are set with the Pulse-software accompanying the amplifier. Data is low pass filtered and sampled directly to hard-disk at a rate of 3 times the cut-off frequency.
Pipettes are pulled from borosilicate glass using a horizontal electrode puller (Zeitz-lnstrumente, Augsburg, Germany). The pipette resistances are 2-3 MOhms in the salt solutions used in these experiments. The pipette electrode is a chloridized silver wire, and the reference is a silver chloride pellet electrode (In Vivo Metric, Healdsburg, USA) fixed to the experimental chamber. The electrodes are zeroed with the open pipette in the bath just prior to sealing.
Coverslips with the cells are transferred to a 15 μl experimental chamber mounted on the stage of an inverted microscope (IMT-2, Olympus) supplied with Nomarski optics. Cells are continuously superfused with extracellular saline at a rate of 2.5 ml/min. After giga-seal formation, the whole cell configuration is attained by suction. The cells are held at a holding voltage of −60 mV and at the start of each experiment the current is continuously measured for 45 s to ensure a stable baseline. Solutions of low pH (<7) are delivered to the chamber through a custom-made gravity-driven flowpipe, the tip of which is placed approximately 50 μm from the cell. Application is triggered when the tubing connected to the flowpipe is compressed by a valve controlled by the Pulse-software. Initially, low pH (in general, pH 6.5) is applied for 5 s every 60 s. The sample interval during application is 550 μs. After stable responses are obtained, the extracellular saline as well as the low-pH solution are switched to solutions containing the compound to be tested. The compound is present until responses of repeatable amplitude are achieved. Current amplitudes are measured at the peak of the responses, and effect of the compounds is calculated as the amplitude at compound equilibrium divided by the amplitude of the current evoked by the pulse just before the compound was included.
The following salt solutions are used: extracellular solution (mM): NaCl (140), KCl (4), CaCl2 (2), MgCl2 (4), HEPES (10, pH 7.4); intracellular solution (mM): KCl (120), KOH (31), MgCl2 (1.785), EGTA (10), HEPES (10, pH 7.2). In general, compounds for testing are dissolved in 50% DMSO at 500 fold the highest concentration used.
CHO cells were transfected with hASIC1a and used to perform full dose-inhibition curves with Compound B, and Compound R. Results are expressed as a fraction of the control peak current obtained in the absence of the test substance.

[6] = FlexStation (Flex), Tables A-F, read-out: Biological Data (IC50 uM) h1a (Flex)
[7] = OpusExpress (OX), Tables A-F, h1a printed in some cells only, read-out: Biological Data (IC50 uM) h1a (OX)
[8] = Table H, read-out: IC50 (μM) Opus Express (h1a)

O=C(O)c1cccc(Nc2nc(-c3ccc(Cl)cc3Cl)nc3ccccc23)c1 [Compound 101, 3-[2-(2,4-dichloro-phenyl)-quinazolin-4-ylamino]-benzoic acid] gave an IC50 [1, 6] of 20 to 30 µM and an IC50 [2] greater than 50 µM.
Work on Brc1ccc(-c2nc(N3CCNCC3)c3ccccc3n2)cc1 [Compound C, 2-(4-bromo-phenyl)-4-piperazin-1-yl-quinazoline] yielded an IC50 ([1]; calcium mobilization assay, HEK293, n=3-7, read-out: FPAT-ASIC1a human/HEK293/k21 IC50) greater than 20 µM.
Work on Cc1cc(N2CCN(CCc3ccccc3)CC2)c2ccccc2n1 [Compound D, 2-methyl-4-(4-phenethyl-piperazin-1-yl)-quinoline] yielded an EC50 [3] of less than 10 µM, an IC50 [4, 7] greater than 50 µM and an IC50 [4, 8] greater than 50 µM.
For Cc1cc(N2CCCN(C)CC2)nc2cc(Cl)ccc12 [Compound F, 7-chloro-4-methyl-2-(4-methyl-[1,4]diazepan-1-yl)-quinoline], the EC50 [3] was less than 10 µM and the “IC50 (μM) Patch Clamp (h1a)” value [5] was “Inactive”.
Molecule Clc1ccc2c(N3CCNCC3)ccnc2c1 [Compound H, 7-chloro-4-piperazin-1-yl-quinoline] has an IC50 [1, 6] of 2 to 10 µM, an EC50 [2] of less than 10 µM and an IC50 [2] of 5 to 15 µM. For the same molecule, the IC50 [4, 7] was 30 to 50 µM and the IC50 [4, 8] was 43.7 µM.
Cc1ccc(-c2nc(Nc3ccc(C(=O)O)cc3)c3ccccc3n2)cc1 [Compound K, 4-(2-p-tolyl-quinazolin-4-ylamino)-benzoic acid] was tested, and the EC50 [3] was greater than 10 µM, the “IC50 (μM) Patch Clamp (h1a)” value [5] was “Inactive” and the “IC50 (μM) Opus Express (h1a)” value ([4]; Table H) was “Inactive”.
Molecule Cc1cc(N2CCN(CC3CCCCC3)CC2)c2ccccc2n1 [Compound O, 4-(4-cyclohexylmethyl-piperazin-1-yl)-2-methyl-quinoline] has an EC50 [3] greater than 20 µM, an IC50 [2] of 5 to 15 µM and an IC50 [4, 7] of 20 to 30 µM. It also gave an IC50 [4, 8] of 23.9 µM.
In the case of COc1ccc(CN2CCN(c3cc(C)nc4ccccc34)CC2)cc1 [Compound Q, 4-[4-(4-methoxy-benzyl)-piperazin-1-yl]-2-methyl-quinoline], the EC50 [3] is reported as less than 10 µM, the IC50 [2] is reported as 10 to 20 µM and the IC50 [4, 8] is reported as greater than 50 µM.
